These results are taken from PubChem BioAssay (NCI).

Some test systems named below: MALME-3M melanoma; 786-0 renal; SF-268 CNS; SK-MEL-5 melanoma; SK-OV-3 ovarian; TK-10 renal; HT29 colon; LOX IMVI melanoma; NCI-H460 lung; KM12 colon.
What all share (assay): DTP human tumour cell line panel, 48 h

“And” between values parts separate entries of the source, which are not always exact repeats. Equal entries are not always repeated.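 Grown in 96-well plates, cells were treated for 48 hours with each compound at five concentrations. Insufficient inhibition: endpoint recorded as highest concentration tested. GI50 = concentration required for 50% inhibition of growth. TGI denotes the concentration required for complete inhibition of growth.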

The term GI50 denotes the concentration that inhibits growth by half. For orientation: TGI means the concentration giving total growth inhibition. A higher TGI goes with lower sensitivity of the cells. For the molecule `O=C(NOCCO)c1ccc2cncn2c1Nc1ccc(I)cc1F`, the GI50 in the experiment on MALME-3M melanoma was 2.03 nM and < 10 nM; in the experiment with 786-0 renal it was > 10 µM and 27.1 µM; with SF-268 CNS it was > 10 µM and 22 µM; in the experiment with SK-MEL-5 melanoma, 3940 nM; with SK-OV-3 ovarian it was > 3.15 µM and 0.791 µM; in the experiment with TK-10 renal, 8.74 nM and < 12.9 nM. Moreover, the concentration for 50% growth inhibition (GI50) in the experiment with HT29 colon was 3.07 nM and < 10 nM; with LOX IMVI melanoma, 49.3 nM and 63.5 nM; with NCI-H460 lung it was > 10000 nM and 21900 nM; in the experiment on KM12 colon it was 26.8 nM and 18 nM. The TGI with MALME-3M melanoma was 0.0186 µM and < 0.01 µM; in the experiment with 786-0 renal, > 100 µM; with SF-268 CNS, > 100 µM; in the experiment with SK-MEL-5 melanoma, > 100 µM; in the experiment on SK-OV-3 ovarian it was > 96.2 µM; in the experiment with TK-10 renal, > 100 µM. Moreover, the TGI in the experiment with HT29 colon was > 100 µM; in the experiment with LOX IMVI melanoma, > 10 µM and 47.1 µM; in the experiment with NCI-H460 lung it was > 100 µM; in the experiment on KM12 colon, > 100 µM.

Regarding `CCNC(=O)O/N=C1\CCC2[C@@H]3CC=C4C[C@@H](OC(=O)NCC)CC[C@]4(C)C3CC[C@]12C` (stereo not given in full), the TGI was found to be 1.51 µM in the experiment with MALME-3M melanoma; 12.8 µM in the experiment with 786-0 renal; 13 µM in the experiment on SF-268 CNS; 10.4 µM in the experiment with SK-MEL-5 melanoma; 19.7 µM with SK-OV-3 ovarian; 5.9 µM in the experiment on TK-10 renal. Moreover, the TGI is 13 µM in the experiment with HT29 colon, 4.64 µM with LOX IMVI melanoma, 10 µM in the experiment with NCI-H460 lung and 13.8 µM in the experiment on KM12 colon.

As to `CN(N=O)c1ccc(/C=C/c2ccnc3ccccc23)cc1`, the TGI in the experiment on MALME-3M melanoma, in the experiment with 786-0 renal, in the experiment on SF-268 CNS, with SK-MEL-5 melanoma, in the experiment with SK-OV-3 ovarian and in the experiment with TK-10 renal was > 100 µM in each case. Further, the concentration for total growth inhibition (TGI) in the experiment on HT29 colon, with LOX IMVI melanoma, in the experiment with NCI-H460 lung and in the experiment on KM12 colon was > 100 µM in each case.

As to `COC(=O)[C@]12CC[C@@H](C)[C@H](C)[C@@H]1C1=CC[C@@H]3[C@@]4(C)C[C@@H](OC(C)=O)[C@H](OC(C)=O)[C@@](C)(COC(C)=O)[C@@H]4[C@H](O)C[C@@]3(C)[C@]1(C)CC2`, the GI50 is 3820 nM in the experiment with MALME-3M melanoma; 1.8 µM in the experiment on 786-0 renal; 2.62 µM with SF-268 CNS; 367 nM with SK-MEL-5 melanoma; 3.1 µM with SK-OV-3 ovarian; 3080 nM in the experiment on TK-10 renal. Further, the GI50 is 659 nM in the experiment with HT29 colon, 540 nM in the experiment with LOX IMVI melanoma, 505 nM in the experiment with NCI-H460 lung and 1030 nM in the experiment with KM12 colon. In addition, the TGI was 74.8 µM in the experiment with MALME-3M melanoma; > 100 µM in the experiment with 786-0 renal; > 100 µM in the experiment with SF-268 CNS; 1.72 µM with SK-MEL-5 melanoma; > 100 µM with SK-OV-3 ovarian; > 100 µM in the experiment on TK-10 renal. Moreover, the concentration for total growth inhibition (TGI) was > 100 µM in the experiment with HT29 colon, > 100 µM in the experiment with LOX IMVI melanoma, 16.2 µM with NCI-H460 lung and > 100 µM in the experiment with KM12 colon.

As for `COc1cc(/C=N/NC(=O)c2cnn3c2NC(c2ccccc2)C3)ccc1OCc1ccccc1` (stereo not given), the GI50 is 616 nM in the experiment with MALME-3M melanoma; 1.16 µM in the experiment with 786-0 renal; 2.42 µM in the experiment with SF-268 CNS; 663 nM in the experiment on SK-MEL-5 melanoma; 1.71 µM in the experiment on SK-OV-3 ovarian; 1760 nM in the experiment with TK-10 renal. In addition, the GI50 was 430 nM in the experiment with HT29 colon, 573 nM with LOX IMVI melanoma, 437 nM with NCI-H460 lung and 412 nM with KM12 colon. Further, the TGI was 3.7 µM in the experiment with MALME-3M melanoma; 4.03 µM in the experiment on 786-0 renal; 16.7 µM in the experiment on SF-268 CNS; 2.8 µM with SK-MEL-5 melanoma; 11.1 µM with SK-OV-3 ovarian; 5.94 µM with TK-10 renal. The TGI was found to be 4.33 µM with HT29 colon, 2.79 µM in the experiment on LOX IMVI melanoma, 1.66 µM in the experiment with NCI-H460 lung and 2.35 µM in the experiment on KM12 colon.

Take `COC(=O)CC(=O)OC1C[C@@H]2CCC3C(C)(C)CCC[C@]3(C)C23CC[C@@]1(C)C3` (stereo not given in full): the TGI turned out to be 32.7 µM in the experiment on MALME-3M melanoma; 29.9 µM with 786-0 renal; 35.9 µM in the experiment with SF-268 CNS; 31.7 µM with SK-MEL-5 melanoma; 52.4 µM with SK-OV-3 ovarian; 34.3 µM with TK-10 renal. Also, the TGI in the experiment on HT29 colon came out at 35.1 µM; in the experiment on LOX IMVI melanoma it was 32.3 µM; in the experiment with NCI-H460 lung, 37.5 µM; in the experiment on KM12 colon, 33.9 µM.

Consider `NC1(C(=O)O)CCC(C(=O)O)CC1` (stereo not given), for which the TGI with MALME-3M melanoma, with 786-0 renal, with SF-268 CNS, in the experiment on SK-MEL-5 melanoma, in the experiment on SK-OV-3 ovarian and in the experiment with TK-10 renal was > 100 µM each time. Besides, the TGI with HT29 colon, with LOX IMVI melanoma, in the experiment with NCI-H460 lung and in the experiment with KM12 colon was > 100 µM each time.

For `O=C1c2ccccc2-c2cn(Cc3ccccc3)c3cccc(c23)C1c1cccnc1` (stereo not given), the GI50 was 10200 nM with MALME-3M melanoma; 5.78 µM in the experiment with 786-0 renal; 18.5 µM with SF-268 CNS; 2420 nM in the experiment with SK-MEL-5 melanoma; 5.38 µM in the experiment with SK-OV-3 ovarian; 20800 nM in the experiment on TK-10 renal. Further, the GI50 was 1860 nM in the experiment on HT29 colon, 2760 nM in the experiment on LOX IMVI melanoma, 1900 nM with NCI-H460 lung and 2270 nM with KM12 colon. Further, the TGI in the experiment with MALME-3M melanoma is > 50 µM; in the experiment with 786-0 renal it was > 50 µM; in the experiment on SF-268 CNS, > 50 µM; in the experiment with SK-MEL-5 melanoma it was 17.9 µM; in the experiment with SK-OV-3 ovarian, > 50 µM; in the experiment with TK-10 renal, > 50 µM. Also, the TGI in the experiment with HT29 colon, in the experiment on LOX IMVI melanoma, with NCI-H460 lung and with KM12 colon was > 50 µM each time.

As for `N/N=C1/C(=O)N(c2ccc(Cl)cc2)C(=O)C(=O)C1c1nc2ccccc2s1` (stereo not given), the concentration for total growth inhibition (TGI) in the experiment with MALME-3M melanoma, with 786-0 renal, in the experiment with SF-268 CNS, with SK-MEL-5 melanoma, in the experiment on SK-OV-3 ovarian and with TK-10 renal was > 100 µM each time. In addition, the concentration for total growth inhibition (TGI) with HT29 colon, in the experiment on LOX IMVI melanoma, in the experiment with NCI-H460 lung and in the experiment with KM12 colon was > 100 µM throughout.

As for `COc1ccc2c(Cl)cc(NC(=S)Nc3ccccc3)nc2c1`, the TGI in the experiment with MALME-3M melanoma is 69.4 µM; in the experiment on 786-0 renal, 62.7 µM; in the experiment with SF-268 CNS, 57.2 µM; in the experiment with SK-MEL-5 melanoma, > 100 µM; with SK-OV-3 ovarian, 61.1 µM; in the experiment on TK-10 renal it was > 100 µM. Moreover, the TGI was 44.4 µM with HT29 colon, 44 µM with LOX IMVI melanoma, > 100 µM in the experiment with NCI-H460 lung and 37.9 µM with KM12 colon.
